Like-named read-outs stand apart in the source and are kept apart here.
How the values were obtained:
[1] = tested on: CHO-K1 cells; assay: MTT cell viability assay on CHO-K1 cells; type: cell-based, Chinese hamster; settings: 24 h exposure
Protocol: Standard MTT assay (3-(4,5-dimethylthiazol-2-yl)-2,5-diphenyltetrazolium bromide; Sigma-Aldrich, Prague, Czechia) was used according to the manufacturer’s protocol on the CHO-K1 (Chinese hamster ovary, ECACC, Salisbury, United Kingdom) in order to compare the effect of different compounds within the series. The cells were cultured according to ECACC recommended conditions and seeded in a density of 8000 per well as described previously ([Soukup et al., 2020]). […] Thereafter, CHO-K1 cells were exposed to two-fold diluted series A, B, C or ten-fold diluted sodium hypochlorite for 24 h. Then the medium was replaced by a medium containing 0.5 mg/ml of MTT and the cells were allowed to produce formazan for approximately 3 h under surveillance. Thereafter, the medium with MTT was removed and crystals of formazan were dissolved in DMSO (100 μl/well). Cell viability was assessed spectrophotometrically by the amount of formazan produced. The absorbance was measured at 570 nm on Synergy HT (BioTek, Winooski, VT, United States). IC50 (half maximal inhibitory concentration) was then calculated from the control – subtracted triplicates using non-linear regression (four parameters) by GraphPad Prism 5.03 or 7.03 software (GraphPad Software Inc., San Diego, CA, United States). Final IC50 and SEM (standard error of the mean) values were obtained as a mean of three independent measurements.

[2] = tested on: human hepatoma cell line; design: method as in Christen et al., 2017; settings: cytotoxicity, ref Christen et al., 2017; cited from earlier work
[3] = tested on: Human alveolar cells; design: method as in Kwon et al., 2019; settings: cytotoxicity, ref Kwon et al., 2019; cited from earlier work
[4] = tested on: osteosarcoma cybrid cells; design: method as in Datta et al., 2017; settings: cytotoxicity, ref Datta et al., 2017; cited from earlier work
[5] = tested on: E. faecalis plankton and biofilm; assay: Comparison of effectiveness in plankton and biofilm (matched fraction of dead cells); type: cell-based, Enterococcus faecalis; settings: for dilution in plankton needed to match the fraction of dead cells in the biofilm: high density E. faecalis suspension 2.4 × 10^9 CFU/mL
Description: In plankton suspensions we were able to reach bactericidal concentration for all tested QACs. The situation was quite different in biofilms. The concentrations that work in plankton were not sufficient to kill all bacteria in the biofilm. […] Unfortunately, due to the solubility limit, it was not possible to increase the concentration of the QACs to concentrations that would kill all bacteria in the biofilm. Nevertheless, we can compare the effectiveness in plankton and biofilm if we decrease the concentration of biocide in the plankton to match the fraction of the dead cells in the biofilm. […] The experiment was performed at high density E. faecalis suspensions (2.4 × 10^9 CFU/mL) to mimic the high density of bacteria in a biofilm. By comparing QACs effectiveness at high initial planktonic densities we have largely eliminated the effect of the bacterial density and estimated the effect of biofilm induced changes on QACs sensitivity. One has to be careful, however, as bacterial cells in plankton differ from biofilm not only in cell density but also in cell metabolism and extracellular matrix viscoelasticity. To match the fraction of dead cells in the biofilm, the 10-fold dilution of compounds A14 and B14 were needed, whereas only 4-fold dilution of compound C14 was required. […] The activity of QACs in biofilms relative to plankton was two orders of magnitude […] than usually reported in the literature. Although our biofilms were mature, they were relatively thin (up to 10 μm) which may explain the relatively high efficiency of the QACs against biofilms. Similar observations have been made for S. mutans biofilms, where biofilm cells were only 8 times less susceptible to QACs compared to plankton bacteria ([López Pérez et al., 2017]).

[6] = tested on: E. faecalis biofilms on titanium surface; assay: Biofilm susceptibility assay, live/dead staining CLSM; type: cell-based, Enterococcus faecalis; settings: for biofilm surface coverage change during the treatment: 1, 3 and 60 min of treatment; for proportion of live cells in biofilm: after 60 min of treatment
Protocol: To grow the biofilms, an overnight culture of E. faecalis (average viable bacterial concentration of 1 × 10^8 CFU/ml) was diluted 100-fold in BHI. E. faecalis biofilms were formed on titanium radial disks (commercially pure titanium, grade 2) with 7 mm diameter and 1 mm thickness. Prior to the experiments all disks were sandblasted (FerroEcoBlast Europe; Microblast ceramic beads B120) to expose fresh titanium surface, cleaned in 70% ethanol and autoclaved at 134°C for 20 min. The biofilms were grown for 3 days at 37°C ± 1°C without shaking or changing of media to achieve a surface coverage of approximately 25% and a surface bacterial density of ∼1.5 × 10^11 bacteria […]. Biofilms grown on a titanium surface were exposed to 1.5 ml of A14, B14, and C14 dissolved in BHI for 1, 3, and 60 min. After treatment the individual disks were rinsed with saline solution to remove QACs as well as unattached bacteria. In laser treated biofilms samples were treated with QACs for 1 min followed by 10 s of Er:YAG – SSP laser treatment. The LightWalker Er:YAG (Fotona, Ljubljana, Slovenia) was set with the following parameters: laser wavelength 2940 nm; contact handpiece H14, Flat Sweeps fiber tip 400/14 positioned 5 mm above the biofilm disk, energy 20 mJ, frequency 15 Hz, water off, air off, single pulse modality – SSP (super short pulse – 50 μs). The titanium disks with their biofilm were positioned at the bottom of cylindrical irrigation system (7.5 mm diameter and 2 cm high) in the presence of 1.5 ml of either saline or the QAC dissolved in BHI. The antibacterial concentration was 250 μM which was the highest soluble QAC concentration in BHI broth. The rinsed biofilms were stained with 5 μL of premixed saline-diluted Syto 9 and propidium iodide stock solutions (1: 300) from LIVE/DEAD^TM BacLight^TM Bacterial Viability Kit L7012 (Thermo Fisher Scientific, Eugene, OR, United States). After 5 min of incubation in the dark the samples were observed by fluorescence microscope Zeiss Axio Observer Z1 equipped with confocal unit LSM 800 (CLSM). Z-stacks and tiles were taken at 100× or 20× magnification at three randomly selected view fields. Image acquisition and control of the microscope were performed with ZEN 2.3 (ZEISS GmbH, Germany). For the 100× magnification, blue 488 nm and yellow 561 nm lasers were set to 1% intensity, GaAsP PMT detectors to 700 V, pinhole to 71 μm, and the size of the acquired 8-bit images was 3476 × 3476 pixels. For the 20× magnification, blue 488 nm and yellow 561 nm lasers were set to 0.85% intensity, GaAsP PMT detectors to 700 V, pinhole to 50 μm and the size of acquired 8-bit images was 1306 × 1306 pixels. The typical Z-step of the Z-stack was 1 μm for 100× magnification and 3.26 μm for 20× magnification. The images were composed of four different view fields. A custom script was written (Image J) and used to evaluate the effect of treatment on the fraction of dead cells and biofilm surface coverage.

[7] = tested on: Enterococcus faecalis DSM 16431; assay: MBC of planktonic E. faecalis at different initial bacterial densities; type: cell-based
Protocol: The antibacterial susceptibility of planktonic bacteria was determined by the broth microdilution method according to the standard M07-A1 ([CLSI, 2018]) and optimized as described previously ([Marek et al., 2015]; [Dolezal et al., 2016]). All antibacterial compounds were dissolved in dimethyl sulfoxide (DMSO p.a., Sigma-Aldrich, Prague, Czechia). The wells of the 96-well microtiter plates contained 200 μL of Mueller-Hinton broth (MHB, HiMedia, Cadersky-Envitek, Prague, Czechia) with two-fold serial dilutions of the QACs (500–0.49 μmol/L) and were inoculated with 10 μL of exponentially grown bacterial suspension adjusted densitometrically to match 0.5 McFarland scale. […] The MBCs were determined for all prepared compounds as the concentrations that provided ≥99.9% decrease in the bacterial number after subculture of 10 μL aliquots from each microtiter well in a corresponding new microtiter plate where each well contained 200 μL of fresh MHB. The MBC was determined as the lowest concentration which corresponded to a well without visible bacterial growth after a further 24 h of incubation at 35 ± 1°C. To ensure that no bacteria had survived, the content of the well was inoculated on an agar plate to confirm the absence of bacterial growth.
To evaluate the effect of bacterial density on the antibacterial activity of the QACs, E. faecalis suspensions from an overnight culture were prepared in the range from 10^6 to 10^10 CFU/mL in Brain Heart Infusion broth (BHI, VWR International BVBA, Leuven, Belgium) by either diluting or concentrating bacterial suspensions. The MBCs corresponding to E. faecalis suspensions with different initial bacterial densities were determined only for the compound A14 in the concentration range between 500 and 0.49 μM prepared by 2-fold serial dilutions. The MBCs were evaluated as described above after the bacteria were exposed to the QACs for 3 min, 60 min or 24 h. The growth rate of tested E. faecalis suspensions at different initial bacterial densities was monitored every 30 min during 7 h of incubation by measuring the optical density (OD600). The values were fitted with the logistic equation

CCCCCCCCCCCCCCCC[n+]1ccn(CCO)c1 [Compound C16]
melting point: 49.2 to 50.1 °C | IC50 ([1]; Cricetulus griseus): 1.03 ± 1 µM

benzalkonium chloride
EC50 [2]: ~12.4 µM | IC50 [3]: ~14.8 µM | IC50 [4]: ~22.8 µM

CCCCCCCCCCCCCC[n+]1ccn(CCO)c1.[Br-] [Compound C14, 3-tetradecyl-1-(2-hydroxyethyl)imidazolium bromide]
IC50 ([1]; Cricetulus griseus): 1.19 ± 0.9 µM | resistance of biofilm bacteria compared to planktonic bacteria [5]: 4 fold | dilution in plankton needed to match the fraction of dead cells in the biofilm [5]: 4 fold | biofilm surface coverage change during the treatment ([6]; 250 μM): did not change significantly | fraction of dead cells in biofilm ([6]; after 1 min of treatment, 250 μM): majority of cells in the biofilm were dead | fraction of dead bacteria in biofilm ([6]; after 3 min of treatment, 250 μM): 86 ± 4% | proportion of live cells in biofilm ([6]; 250 μM): 3%

CCCCCCCCCCCC[n+]1ccn(CCO)c1 [Compound C12]
IC50 ([1]; Cricetulus griseus): 1.43 ± 3 µM

CCCCCCCCCCCCCCCC[n+]1cccc(Cl)c1.[Br-] [Compound B16, 1-hexadecyl-3-chloropyridinium bromide]
melting point: 91.4 to 92.2 °C | IC50 ([1]; Cricetulus griseus): 12.5 ± 1.1 µM

CCCCCCCCCCCCCC[n+]1ccccc1 [Compound A14]
MBC ([7]; DSM16431, 0.05 h, 3 min exposure, initial CFU/mL 10^6, read-out: MBC 3 min): 63 µM | MBC ([7]; DSM16431, 0.05 h, 3 min exposure, initial CFU/mL 10^7, read-out: MBC 3 min): 63 µM | MBC ([7]; DSM16431, 0.05 h, 3 min exposure, initial CFU/mL 10^8, read-out: MBC 3 min): 31 to 63 µM | MBC ([7]; DSM16431, 0.05 h, 3 min exposure, initial CFU/mL 10^9, read-out: MBC 3 min): 250 µM | MBC ([7]; DSM16431, 0.05 h, 3 min exposure, initial CFU/mL 10^10, read-out: MBC 3 min): > 250 µM | MBC ([7]; DSM16431, 1 h, 60 min exposure, initial CFU/mL 10^6, read-out: MBC 60 min): 31 µM | MBC ([7]; DSM16431, 1 h, 60 min exposure, initial CFU/mL 10^7, read-out: MBC 60 min): 31 µM | MBC ([7]; DSM16431, 1 h, 60 min exposure, initial CFU/mL 10^8, read-out: MBC 60 min): 63 µM | MBC ([7]; DSM16431, 1 h, 60 min exposure, initial CFU/mL 10^9, read-out: MBC 60 min): 125 µM | MBC ([7]; DSM16431, 1 h, 60 min exposure, initial CFU/mL 10^10, read-out: MBC 60 min): 250 µM | MBC ([7]; DSM16431, 24 h, 24 h exposure, initial CFU/mL 10^6, read-out: MBC 24 h): 16 to 31 µM | MBC ([7]; DSM16431, 24 h, 24 h exposure, initial CFU/mL 10^7, read-out: MBC 24 h): 16 to 31 µM | MBC ([7]; DSM16431, 24 h, 24 h exposure, initial CFU/mL 10^8, read-out: MBC 24 h): 31 µM | MBC ([7]; DSM16431, 24 h, 24 h exposure, initial CFU/mL 10^9, read-out: MBC 24 h): 31 to 63 µM | MBC ([7]; DSM16431, 24 h, 24 h exposure, initial CFU/mL 10^10, read-out: MBC 24 h): 250 µM | MBC ([7]; DSM16431, 24 h, after 24 h, 10^6 CFU/ml initial bacterial density, read-out: relative MBC value per bacterial cell): 2.1e-05 µM | MBC ([7]; DSM16431, 24 h, after 24 h, 10^10 CFU/ml initial bacterial density, read-out: relative MBC value per bacterial cell): 2.7e-08 µM | IC50 ([1]; Cricetulus griseus): 24.7 ± 0.2 µM | dilution in plankton needed to match the fraction of dead cells in the biofilm [5]: 10 fold | biofilm surface coverage change during the treatment ([6]; 250 μM): did not change significantly | proportion of live cells in biofilm ([6]; 250 μM): 18%

CCCCCCCCCCCCCC[n+]1cccc(Cl)c1.[Br-] [Compound B14, 1-tetradecyl-3-chloropyridinium bromide]
IC50 ([1]; Cricetulus griseus): 17.2 ± 1.3 µM | dilution in plankton needed to match the fraction of dead cells in the biofilm [5]: 10 fold | biofilm surface coverage change during the treatment ([6]; 250 μM): did not change significantly | proportion of live cells in biofilm ([6]; 250 μM): 14%

CCCCCCCCCCCC[n+]1ccccc1 [Compound A12, 1-dodecylpyridinium]
IC50 ([1]; Cricetulus griseus): 38.8 ± 0.9 µM

CCCCCCCCCCCC[n+]1cccc(Cl)c1.[Br-] [Compound B12, 1-dodecyl-3-chloropyridinium bromide]
melting point: 68.5 to 69.2 °C | IC50 ([1]; Cricetulus griseus): 25.5 ± 2.5 µM

[Na+].[O-]Cl [Sodium hypochlorite, reference compound]
IC50 [1]: 6.45 ± 1.1 µM | biofilm coverage ([6]; after 1 min of exposure, 3% V/V, positive control): below 1%

From article PMC7606276, “The Antibacterial Effects of New N-Alkylpyridinium Salts on Planktonic and Biofilm Bacteria” (Frontiers in Microbiology, 2020)
